We go through three compounds from patent publication US20230095495A1, “SKIN CONDITIONING COMPOSITION WITH HIGH CONCENTRATION OF UREA TO BOOST THE SKINCARE ACTIVES” (L'OREAL, priority 2021, published 2023).

Series [1] concerns stratum corneum. Put plainly: In vitro stratum corneum comparison of ΔT by differential scanning calorimetry (DSC). Particulars: variation of INV #1 applied first without rinsing, then hydroxy-acid based peel moisturizer; compared to peel moisturizer alone. As for the experimental part: In studies, the effect of urea at various concentrations and using hydroxyethyl urea (HEU) was according to INV #1 (40% urea, 5% glycine, 0.7% triacetin, buffer) in which the amount and form of urea was varied. […] Studies were conducted with each of the tested compositions to evaluate effect of the compositions on the stratum corneum.
In Vitro Stratum Corneum Comparison of Δ T using differential scanning calorimetry (DSC) is used to characterize the stability of a protein or other biomolecule directly in its native form. It does this by measuring the heat change associated with the molecule's thermal denaturation when heated at a constant rate. Compositions were evaluated on SC samples according to the following procedure. Stratum corneum samples were equilibrated at 75% relative humidity (RH) overnight. Inventive and Comparative Compositions and control treatments applied on SC surface (0.1 g/sample) for 15 min in 75% RH. The SC surface was wiped clean and rinsed with DI water. Allow to dry in 75% RH overnight. The DSC profile was measured from 20° C. to 120° C. at 5° C./min.
As an initial step, each test composition was applied first to skin without rinsing, followed by application of a hydroxy-acid based peel composition in a moisturizer form.
For orientation: Differential scanning calorimetry records heat flow against a reference as temperature is scanned.

The conditions of series [2]: acute oral toxicity, mutagenicity, skin irritation, skin sensitization, phototoxicity; cited from earlier work.

As for `NC(=O)NCCO` [hydroxyethyl urea], the “desquamation evidenced by stratum corneum disorganization, with increased amounts” value in series [1] was “increased desquamation”. Turning to `CC(c1ccccc1)c1ccc(O)cc1O` (stereo not drawn) [Phenylethyl resorcinol, phenylethyl resorcinol], the “adverse effects in basic toxicological tests” value in series [2] was “has not shown adverse effects”. Consider `NC(N)=O` [urea], for which the “desquamation evidenced by stratum corneum disorganization, with increased amounts” value in series [1] is recorded as “increased desquamation”.
